ChEMBL document CHEMBL1212816, “Proanthocyanidins from the leaves of Machilus philippinensis” (J Nat Prod, 2010)

Test: Inhibition of Bacillus stearothermophilus alpha glucosidase-4
Set-up: species or system Geobacillus stearothermophilus

| IC50 | SMILES |
| --- | --- |
| 10.5 µM | Oc1cc(O)c2c(c1)O[C@H](c1ccc(O)c(O)c1)[C@H](O)[C@H]2c1c(O)cc2c(c1O)[C@@H]1c3c(cc(O)c4c3O[C@H](c3ccc(O)c(O)c3)[C@H](O)[C@H]4c3c(O)cc(O)c4c3O[C@H](c3ccc(O)c(O)c3)[C@H](O)C4)O[C@](c3ccc(O)c(O)c3)(O2)[C@@H]1O |
| > 100 µM | Oc1cc(O)c2c(c1)O[C@H](c1ccc(O)c(O)c1)[C@H](O)[C@H]2c1c(O)c2c(c3c1O[C@]1(c4ccc(O)c(O)c4)Oc4cc(O)cc(O)c4[C@H]3[C@H]1O)O[C@H](c1ccc(O)c(O)c1)[C@H](O)[C@H]2c1c(O)cc(O)c2c1O[C@H](c1ccc(O)c(O)c1)[C@H](O)C2 |
| 31.3 µM | Oc1cc(O)c2c(c1)O[C@H](c1ccc(O)c(O)c1)[C@H](O)[C@H]2c1c(O)cc(O)c2c1O[C@H](c1ccc(O)c(O)c1)[C@H](O)[C@H]2c1c(O)c2c(c3c1O[C@]1(c4ccc(O)c(O)c4)Oc4cc(O)cc(O)c4[C@H]3[C@H]1O)O[C@H](c1ccc(O)c(O)c1)[C@H](O)[C@H]2c1c(O)cc(O)c2c1O[C@H](c1ccc(O)c(O)c1)[C@H](O)C2 |
| 18.4 µM | Oc1cc(O)c2c(c1)O[C@H](c1ccc(O)c(O)c1)[C@H](O)[C@H]2c1c(O)cc(O)c2c1O[C@H](c1ccc(O)c(O)c1)[C@H](O)[C@H]2c1c(O)cc(O)c2c1O[C@H](c1ccc(O)c(O)c1)[C@H](O)[C@H]2c1c(O)c2c(c3c1O[C@]1(c4ccc(O)c(O)c4)Oc4cc(O)cc(O)c4[C@H]3[C@H]1O)O[C@H](c1ccc(O)c(O)c1)[C@H](O)[C@H]2c1c(O)cc(O)c2c1O[C@H](c1ccc(O)c(O)c1)[C@H](O)C2 |
| > 100 µM | Oc1cc(O)c2c(c1)O[C@H](c1ccc(O)c(O)c1)[C@H](O)C2 [(-)-EPICATECHIN] |
| 0.049 µM | C[C@H]1O[C@H](O[C@H]2[C@H](O)[C@@H](O)[C@@H](O[C@H]3[C@H](O)[C@@H](O)C(O)O[C@@H]3CO)O[C@@H]2CO)[C@H](O)[C@@H](O)[C@@H]1N[C@H]1C=C(CO)[C@@H](O)[C@H](O)[C@H]1O (some centres undefined) [ACARBOSE] |
| 3.5 µM | Oc1cc(O)c2c(c1)O[C@@]1(c3ccc(O)c(O)c3)Oc3cc(O)c4c(c3[C@@H]2[C@H]1O)O[C@@H](c1ccc(O)c(O)c1)[C@H](O)[C@H]4c1c(O)cc(O)c2c1O[C@H](c1ccc(O)c(O)c1)[C@H](O)C2 [AESCULTITANNIN B] |
| > 100 µM | Oc1cc(O)c2c(c1)O[C@@]1(c3ccc(O)c(O)c3)Oc3cc(O)c4c(c3[C@@H]2[C@H]1O)O[C@H](c1ccc(O)c(O)c1)[C@H](O)[C@H]4c1c(O)cc(O)c2c1O[C@H](c1ccc(O)c(O)c1)[C@H](O)C2 [CINNAMTANNIN B1] |
| 92.9 µM | Oc1cc(O)c2c(c1)O[C@@]1(c3ccc(O)c(O)c3)Oc3cc(O)c4c(c3[C@@H]2[C@H]1O)O[C@H](c1ccc(O)c(O)c1)[C@H](O)[C@H]4c1c(O)cc(O)c2c1O[C@H](c1ccc(O)c(O)c1)[C@@H](O)C2 [CINNAMTANNIN D1] |
